# Experimental data from patent US11981658B2, “Substituted aminopyridine compounds as EGFR inhibitors” (YUHAN CORPORATION, priority 2021, dated 2024).
# Like-named read-outs stand apart in the source and are kept apart here.
# Legend:
# EGFR wildtype (WT) = EGFR wildtype (WT) (Homo sapiens, UniProt P00533); experiment: Biochemical EGFR kinase inhibition assay (Lance Ultra TR-FRET), wildtype
# Summary of the method: (§1)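 In this biochemical assay, phosphorylation after a one-hour room-temperature reaction was detected with europium-labelled anti-phosphopeptide antibody at 2 nM final concentration.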
# EGFR Del19/C797S = EGFR Del19/C797S (Homo sapiens, UniProt P00533, C797S/DEL746-750); experiment: Biochemical EGFR kinase inhibition assay (Lance Ultra TR-FRET), double mutant del19/C797S
# EGFR Del19/C797S, sequence (P00533 with tags, fused parts or gaps DEL746-750/C797S): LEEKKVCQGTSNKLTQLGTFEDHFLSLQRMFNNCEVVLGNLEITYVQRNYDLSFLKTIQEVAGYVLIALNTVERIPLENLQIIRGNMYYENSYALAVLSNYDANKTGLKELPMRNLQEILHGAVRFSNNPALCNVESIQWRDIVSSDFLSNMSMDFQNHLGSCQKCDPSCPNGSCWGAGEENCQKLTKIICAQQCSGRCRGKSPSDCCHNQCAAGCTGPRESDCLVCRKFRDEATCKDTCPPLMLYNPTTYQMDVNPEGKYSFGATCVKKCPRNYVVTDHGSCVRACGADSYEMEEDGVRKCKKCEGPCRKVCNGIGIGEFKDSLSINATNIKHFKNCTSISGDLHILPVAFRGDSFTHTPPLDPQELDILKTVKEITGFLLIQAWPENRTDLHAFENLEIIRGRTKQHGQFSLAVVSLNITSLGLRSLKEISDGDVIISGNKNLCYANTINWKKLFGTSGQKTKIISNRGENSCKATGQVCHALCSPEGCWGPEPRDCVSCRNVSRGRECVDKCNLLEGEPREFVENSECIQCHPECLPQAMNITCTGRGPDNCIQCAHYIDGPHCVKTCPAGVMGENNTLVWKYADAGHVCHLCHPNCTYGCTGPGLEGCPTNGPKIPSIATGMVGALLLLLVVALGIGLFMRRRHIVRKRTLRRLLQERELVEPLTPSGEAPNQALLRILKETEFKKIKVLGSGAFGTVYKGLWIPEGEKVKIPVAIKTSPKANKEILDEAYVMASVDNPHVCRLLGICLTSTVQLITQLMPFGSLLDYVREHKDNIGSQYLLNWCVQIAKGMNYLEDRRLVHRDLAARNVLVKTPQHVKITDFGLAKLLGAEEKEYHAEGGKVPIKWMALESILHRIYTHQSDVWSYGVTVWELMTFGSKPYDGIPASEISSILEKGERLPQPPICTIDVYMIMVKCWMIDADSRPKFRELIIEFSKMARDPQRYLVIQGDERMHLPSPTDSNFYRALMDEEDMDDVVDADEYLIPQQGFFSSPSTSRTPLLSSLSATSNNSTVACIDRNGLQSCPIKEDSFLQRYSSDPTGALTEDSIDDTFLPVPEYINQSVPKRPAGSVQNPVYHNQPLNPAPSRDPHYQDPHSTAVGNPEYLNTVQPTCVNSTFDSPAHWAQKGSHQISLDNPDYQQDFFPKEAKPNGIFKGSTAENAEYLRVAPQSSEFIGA
# Summary of the method: as §1
# EGFR L858R/C797S = EGFR L858R/C797S (Homo sapiens, UniProt P00533, C797S/L858R); experiment: Biochemical EGFR kinase inhibition assay (Lance Ultra TR-FRET), double mutant L858R/C797S
# EGFR L858R/C797S, sequence (P00533 25-1210 C797S/L858R): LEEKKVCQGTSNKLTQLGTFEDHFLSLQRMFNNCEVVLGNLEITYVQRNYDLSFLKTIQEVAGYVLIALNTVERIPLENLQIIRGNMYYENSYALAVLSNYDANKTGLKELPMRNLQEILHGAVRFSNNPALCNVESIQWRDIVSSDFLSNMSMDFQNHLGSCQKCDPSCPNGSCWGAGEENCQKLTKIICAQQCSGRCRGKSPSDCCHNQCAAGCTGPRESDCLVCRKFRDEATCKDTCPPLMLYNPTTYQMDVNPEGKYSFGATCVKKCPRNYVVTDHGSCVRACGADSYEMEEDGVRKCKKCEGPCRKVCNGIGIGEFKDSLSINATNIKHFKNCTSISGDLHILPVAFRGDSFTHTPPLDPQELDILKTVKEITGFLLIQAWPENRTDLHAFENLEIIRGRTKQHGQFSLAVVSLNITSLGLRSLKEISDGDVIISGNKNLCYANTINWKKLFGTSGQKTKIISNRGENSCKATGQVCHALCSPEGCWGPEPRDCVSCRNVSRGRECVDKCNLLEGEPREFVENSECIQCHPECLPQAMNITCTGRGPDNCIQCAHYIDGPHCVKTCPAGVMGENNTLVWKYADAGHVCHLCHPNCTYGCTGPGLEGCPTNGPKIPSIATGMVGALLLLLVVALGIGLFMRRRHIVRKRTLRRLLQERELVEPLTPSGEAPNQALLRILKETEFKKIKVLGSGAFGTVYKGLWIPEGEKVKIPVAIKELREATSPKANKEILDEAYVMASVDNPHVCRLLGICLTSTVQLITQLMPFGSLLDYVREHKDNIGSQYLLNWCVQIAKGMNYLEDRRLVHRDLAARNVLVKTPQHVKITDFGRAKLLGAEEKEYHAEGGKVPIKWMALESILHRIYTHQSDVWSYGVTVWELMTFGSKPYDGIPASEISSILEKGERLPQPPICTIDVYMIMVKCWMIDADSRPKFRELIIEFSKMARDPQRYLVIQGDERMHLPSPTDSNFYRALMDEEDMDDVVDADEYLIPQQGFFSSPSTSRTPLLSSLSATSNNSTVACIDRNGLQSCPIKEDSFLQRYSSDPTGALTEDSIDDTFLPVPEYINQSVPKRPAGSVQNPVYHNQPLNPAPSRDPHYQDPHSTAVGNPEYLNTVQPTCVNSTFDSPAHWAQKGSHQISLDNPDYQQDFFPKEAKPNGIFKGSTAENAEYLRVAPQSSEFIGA
# Summary of the method: as §1
# EGFR Del19/T790M/C797S = EGFR Del19/T790M/C797S (Homo sapiens, UniProt P00533, C797S/DEL746-750/T790M); experiment: Biochemical EGFR kinase inhibition assay (Lance Ultra TR-FRET), triple mutant del19/T790M/C797S
# EGFR Del19/T790M/C797S, sequence (P00533 with tags, fused parts or gaps DEL746-750/T790M/C797S): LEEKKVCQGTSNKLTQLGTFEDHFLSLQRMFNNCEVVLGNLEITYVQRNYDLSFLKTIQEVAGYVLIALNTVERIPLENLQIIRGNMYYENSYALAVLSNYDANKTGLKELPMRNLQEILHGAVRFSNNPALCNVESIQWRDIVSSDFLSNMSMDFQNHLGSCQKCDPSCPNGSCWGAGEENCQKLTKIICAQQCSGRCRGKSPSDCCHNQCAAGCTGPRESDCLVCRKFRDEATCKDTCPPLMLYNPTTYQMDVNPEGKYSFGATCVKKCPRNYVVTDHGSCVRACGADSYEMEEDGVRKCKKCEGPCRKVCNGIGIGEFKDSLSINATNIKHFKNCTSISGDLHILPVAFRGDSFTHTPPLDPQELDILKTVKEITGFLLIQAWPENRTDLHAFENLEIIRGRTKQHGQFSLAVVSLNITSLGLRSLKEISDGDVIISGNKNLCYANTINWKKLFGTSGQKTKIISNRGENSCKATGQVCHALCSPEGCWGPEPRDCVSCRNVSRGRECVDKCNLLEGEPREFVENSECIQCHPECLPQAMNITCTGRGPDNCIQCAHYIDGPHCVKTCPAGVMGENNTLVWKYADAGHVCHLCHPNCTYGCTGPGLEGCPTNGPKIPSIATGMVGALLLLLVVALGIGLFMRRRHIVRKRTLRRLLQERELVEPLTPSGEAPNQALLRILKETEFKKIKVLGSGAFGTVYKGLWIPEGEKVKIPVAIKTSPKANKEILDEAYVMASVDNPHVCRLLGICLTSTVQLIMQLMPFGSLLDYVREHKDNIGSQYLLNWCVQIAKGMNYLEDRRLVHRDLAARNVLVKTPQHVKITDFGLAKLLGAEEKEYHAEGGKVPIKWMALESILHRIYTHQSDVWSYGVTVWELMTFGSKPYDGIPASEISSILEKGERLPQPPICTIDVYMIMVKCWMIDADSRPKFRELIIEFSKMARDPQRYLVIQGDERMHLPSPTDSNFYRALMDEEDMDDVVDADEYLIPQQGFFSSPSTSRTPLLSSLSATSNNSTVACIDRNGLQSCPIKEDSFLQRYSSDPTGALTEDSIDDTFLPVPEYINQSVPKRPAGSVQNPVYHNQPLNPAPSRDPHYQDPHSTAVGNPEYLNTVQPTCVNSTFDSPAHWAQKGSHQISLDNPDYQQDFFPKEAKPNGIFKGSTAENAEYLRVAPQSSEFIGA
# Summary of the method: as §1
# EGFR L858R/T790M/C797S = EGFR L858R/T790M/C797S (Homo sapiens, UniProt P00533, C797S/L858R/T790M); experiment: Biochemical EGFR kinase inhibition assay (Lance Ultra TR-FRET), triple mutant L858R/T790M/C797S
# EGFR L858R/T790M/C797S, sequence (P00533 25-1210 T790M/C797S/L858R): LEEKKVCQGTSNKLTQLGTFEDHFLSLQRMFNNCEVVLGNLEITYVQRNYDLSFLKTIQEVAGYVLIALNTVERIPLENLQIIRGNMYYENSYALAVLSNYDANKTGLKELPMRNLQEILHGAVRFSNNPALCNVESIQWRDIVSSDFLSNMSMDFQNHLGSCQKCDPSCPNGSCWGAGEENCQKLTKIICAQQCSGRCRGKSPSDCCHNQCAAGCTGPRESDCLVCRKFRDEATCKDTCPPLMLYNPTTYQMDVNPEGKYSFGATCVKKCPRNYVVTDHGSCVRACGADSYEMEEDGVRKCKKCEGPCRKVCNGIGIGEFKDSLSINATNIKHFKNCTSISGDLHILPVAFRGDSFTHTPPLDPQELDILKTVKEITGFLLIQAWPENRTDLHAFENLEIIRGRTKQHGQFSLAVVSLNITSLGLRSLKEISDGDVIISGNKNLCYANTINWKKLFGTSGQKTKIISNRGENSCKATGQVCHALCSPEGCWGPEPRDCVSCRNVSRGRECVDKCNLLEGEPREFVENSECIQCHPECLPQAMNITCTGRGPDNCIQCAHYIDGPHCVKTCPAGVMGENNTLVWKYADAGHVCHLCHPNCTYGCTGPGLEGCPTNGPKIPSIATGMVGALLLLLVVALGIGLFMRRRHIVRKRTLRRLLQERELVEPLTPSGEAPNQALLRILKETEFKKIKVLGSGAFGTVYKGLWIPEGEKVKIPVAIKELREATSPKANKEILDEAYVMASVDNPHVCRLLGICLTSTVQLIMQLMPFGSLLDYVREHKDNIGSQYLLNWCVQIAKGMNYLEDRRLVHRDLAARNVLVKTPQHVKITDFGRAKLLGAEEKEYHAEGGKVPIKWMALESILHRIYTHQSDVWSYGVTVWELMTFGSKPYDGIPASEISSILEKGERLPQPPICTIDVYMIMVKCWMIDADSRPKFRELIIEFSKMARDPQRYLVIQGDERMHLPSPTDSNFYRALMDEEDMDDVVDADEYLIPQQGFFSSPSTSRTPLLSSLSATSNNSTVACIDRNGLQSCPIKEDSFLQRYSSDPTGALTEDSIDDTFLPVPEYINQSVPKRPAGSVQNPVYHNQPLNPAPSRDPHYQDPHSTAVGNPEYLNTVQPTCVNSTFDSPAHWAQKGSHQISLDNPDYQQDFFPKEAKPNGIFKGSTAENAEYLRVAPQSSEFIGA
# Summary of the method: as §1
# [1] = IC50 Del19/C797S (nM), 100 μM ATP
# [2] = IC50 L858R/C797S (nM), 100 μM ATP
# [3] = IC50 Del19/T790M/C797S (nM), 100 μM ATP
# [4] = IC50 L858R/T790M/C797S (nM), 100 μM ATP
# [5] = ATP at Km, read-out: IC50 WT (nM), Km ATP
# [6] = ATP at Km, read-out: IC50 Del19/C797S (nM), Km ATP
# [7] = ATP at Km, read-out: IC50 L858R/C797S (nM), Km ATP
# [8] = ATP at Km, read-out: IC50 Del19/T790M/C797S (nM), Km ATP
# [9] = ATP at Km, read-out: IC50 L858R/T790M/C797S (nM), Km ATP
SMILES,"IC50 (EGFR wildtype (WT); IC50 WT (nM), 100 μM ATP) [nM]",IC50 (EGFR Del19/C797S; [1]) [nM],IC50 (EGFR L858R/C797S; [2]) [nM],IC50 (EGFR Del19/T790M/C797S; [3]) [nM],IC50 (EGFR L858R/T790M/C797S; [4]) [nM],IC50 (EGFR wildtype (WT); [5]) [nM],IC50 (EGFR Del19/C797S; [6]) [nM],IC50 (EGFR L858R/C797S; [7]) [nM],IC50 (EGFR Del19/T790M/C797S; [8]) [nM],IC50 (EGFR L858R/T790M/C797S; [9]) [nM],"IC50 (EGFR wildtype (WT); Km ATP, read-out: IC50 WT (nM) Km ATP) [nM]","IC50 (EGFR Del19/C797S; Km ATP, read-out: IC50 Del19/C797S (nM) Km ATP) [nM]","IC50 (EGFR L858R/C797S; Km ATP, read-out: IC50 L858R/C797S (nM) Km ATP) [nM]","IC50 (EGFR Del19/T790M/C797S; Km ATP, read-out: IC50 Del19/T790M/C797S (nM) Km ATP) [nM]","IC50 (EGFR L858R/T790M/C797S; Km ATP, read-out: IC50 L858R/T790M/C797S (nM) Km ATP) [nM]"
"Cn1cnc(C#Cc2cnc(Nc3ccnc(-c4cnn(S(=O)(=O)C5CC5)c4)n3)cc2N2CCC(O)CC2)c1 [Example 213, 1-(2-((2-(1-(Cyclopropylsulfonyl)-1H-pyrazol-4-yl)pyrimidin-4-yl)amino)-5-((1-methyl-1H-imidazol-4-yl)ethynyl)pyridin-4-yl)piperidin-4-ol]",> 10000,8.8,37.5,0.7,1.4,,,,,,,,,,
"Cn1cnc(C#Cc2cnc(Nc3ccnc(-c4cnn(S(=O)(=O)C5CC5)c4)n3)cc2N[C@H]2CC[C@@H](O)CC2)n1 [Example 167, (1s,4s)-4-((2-((2-(1-(Cyclopropylsulfonyl)-1H-pyrazol-4-yl)pyrimidin-4-yl)amino)-5-((1-methyl-1,2,4-triazol-3-yl)ethynyl)pyridin-4-yl)amino)cyclohexan-1-ol]",> 10000,88.8,532,3.4,15.4,279,81.8,24,3.7,3.5,,,,,
"Cn1cc(C#Cc2cnc(Nc3ccnc(-c4cnn(S(=O)(=O)C5CC5)c4)n3)cc2N2CC(C(C)(C)O)C2)cn1 [Example 35, 2-(1-(2-((2-(1-(Cyclopropylsulfonyl)-1H-pyrazol-4-yl)pyrimidin-4-yl)amino)-5-((1-methyl-1H-pyrazol-4-yl)ethynyl)pyridin-4-yl)azetidin-3-yl)propan-2-ol]",> 10000,27.3,53,1.9,2.4,,,,,,99.6,28,34.2,0.9,2.4

# Now those with a lower IC50 (EGFR wildtype (WT); IC50 WT (nM), 100 μM ATP), led by results:
"IC50 (EGFR wildtype (WT); IC50 WT (nM), 100 μM ATP) [nM]",IC50 (EGFR Del19/C797S; [1]) [nM],IC50 (EGFR L858R/C797S; [2]) [nM],IC50 (EGFR Del19/T790M/C797S; [3]) [nM],IC50 (EGFR L858R/T790M/C797S; [4]) [nM],IC50 (EGFR wildtype (WT); [5]) [nM],IC50 (EGFR Del19/C797S; [6]) [nM],IC50 (EGFR L858R/C797S; [7]) [nM],IC50 (EGFR Del19/T790M/C797S; [8]) [nM],IC50 (EGFR L858R/T790M/C797S; [9]) [nM],"IC50 (EGFR wildtype (WT); Km ATP, read-out: IC50 WT (nM) Km ATP) [nM]","IC50 (EGFR Del19/C797S; Km ATP, read-out: IC50 Del19/C797S (nM) Km ATP) [nM]","IC50 (EGFR L858R/C797S; Km ATP, read-out: IC50 L858R/C797S (nM) Km ATP) [nM]","IC50 (EGFR Del19/T790M/C797S; Km ATP, read-out: IC50 Del19/T790M/C797S (nM) Km ATP) [nM]","IC50 (EGFR L858R/T790M/C797S; Km ATP, read-out: IC50 L858R/T790M/C797S (nM) Km ATP) [nM]",SMILES
418,0.5,3.1,1.3,1.5,6,0.6,1,0.8,0.5,,,,,,"CC1(CO)CCN(c2cc(Nc3ccnc(-c4cnn(S(=O)(=O)C5CC5)c4)n3)ncc2C#Cc2cnn(C3CCOC3)c2)CC1 (stereo not shown) [Example 244, (1-(2-((2-(1-(Cyclopropylsulfonyl)-1H-pyrazol-4-yl)pyrimidin-4-yl)amino)-5-((1-(tetrahydrofuran-3-yl)-1H-pyrazol-4-yl)ethynyl)pyridin-4-yl)-4-methylpiperidin-4-yl)methanol]"
6570,2.1,26,0.1,0.2,,,,,,,,,,,"O=C(N1CCC(C#Cc2cnc(Nc3ccnc(-c4cnn(S(=O)(=O)C5CC5)c4)n3)cc2NC2CCC(CO)CC2)C1)C(F)(F)F (stereo not shown) [Example 408, 1-(3-((6-((2-(1-(Cyclopropylsulfonyl)-1H-pyrazol-4-yl)pyrimidin-4-yl)amino)-4-(((1s,4s)-4-(hydroxymethyl)cyclohexyl)amino)pyridin-3-yl)ethynyl)pyrrolidin-1-yl)-2,2,2-trifluoroethan-1-one]"
822,0.3,5.1,0.1,0.1,1.9,0.3,1.8,0.1,0.04,,,,,,"CNCCC1CCN(c2cc(Nc3ccnc(-c4cnn(S(=O)(=O)C5CC5)c4)n3)ncc2C#Cc2cnn(C)c2)CC1 [Example 153, 2-(1-(Cyclopropylsulfonyl)-1H-pyrazol-4-yl)-N-(5-((1-methyl-1H-pyrazol-4-yl)ethynyl)-4-(4-(2-(methylamino)ethyl)piperidin-1-yl)pyridin-2-yl)pyrimidin-4-amine]"
8000,2.7,28.1,1.8,2.3,,,,,,,,,,,"Cn1cc(C#Cc2cnc(Nc3ccnc(-c4cnn(S(=O)(=O)C5CC5)c4)n3)cc2N2CCC(CO)CC2)cn1 [Example 29, (1-(2-((2-(1-(Cyclopropylsulfonyl)-1H-pyrazol-4-yl)pyrimidin-4-yl)amino)-5-((1-methyl-1H-pyrazol-4-yl)ethynyl)pyridin-4-yl)piperidin-4-yl)methanol]"
